The target in the assay is T1, human mAChR M4 (Homo sapiens, UniProt P08173).
T1 construct: expressed in transfected cells; host or cells: CHO-K1 (ATCC), stably co-expressing chimeric G protein Gqi5
T1 sequence (P08173 1-479): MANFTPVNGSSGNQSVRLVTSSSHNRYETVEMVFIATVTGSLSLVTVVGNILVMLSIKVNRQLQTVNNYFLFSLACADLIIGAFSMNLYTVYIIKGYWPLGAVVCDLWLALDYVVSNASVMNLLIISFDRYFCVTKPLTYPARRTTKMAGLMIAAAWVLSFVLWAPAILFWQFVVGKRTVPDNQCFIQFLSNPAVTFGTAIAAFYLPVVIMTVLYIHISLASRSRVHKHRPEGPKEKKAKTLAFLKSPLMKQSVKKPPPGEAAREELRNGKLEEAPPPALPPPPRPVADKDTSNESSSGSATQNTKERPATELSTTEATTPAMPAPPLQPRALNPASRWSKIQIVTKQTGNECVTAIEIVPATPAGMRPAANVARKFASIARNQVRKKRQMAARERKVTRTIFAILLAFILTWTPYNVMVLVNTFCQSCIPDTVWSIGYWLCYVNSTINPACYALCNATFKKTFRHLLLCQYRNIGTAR
Briefly: mAChR M4 cell-based functional assay (calcium mobilization, EC80 acetylcholine), human M4. The conditions noted are these: for Emin: human M4, % ACh maximum at 30 μM. The method in brief: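 CHO-K1 cells stably expressing human M4 with chimeric Gqi5; intracellular calcium rise read on FDSS as fluorescence static ratio at 1 Hz. Compounds in 10-point 1:3 dilution series; IC50 taken as concentration-dependent decrease of the EC80 acetylcholine response, four-parameter logistic fit.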

Where [1] appears, read: Table 9, M4/Gqi5/CHO-K1 cells, decrease of EC80 acetylcholine response.
[2] abbreviates: Table 10, M4/Gqi5/CHO-K1 cells, decrease of EC80 acetylcholine response.

With `CCCC(C)CN1C[C@H]2C[C@H](Nc3ccc(-c4cc(F)ccc4Cl)nn3)C[C@H]2C1` (stereo partly drawn) [Compound 30, (3aR,5s,6aS)-N-[6-(2-chloro-5-fluoro-phenyl)pyridazin-3-yl]-2-(2-methylpentyl)-3,3a,4,5,6,6a-hexahydro-1H-cyclopenta[c]pyrrol-5-amine], the 50% inhibitory concentration (IC50) under setting [1] was 0.01 µM. In addition, under “Table 9”, the Emin is on record as 2.88%.

For the molecule `CC(=O)Nc1ccc(-c2ccc(N[C@H]3C[C@@H]4CN(CCC(C)(C)C)C[C@@H]4C3)c(F)c2F)cc1` [Compound 148, N-[4-[4-[[(3aR,5s,6aS)-2-(3,3-dimethylbutyl)-3,3a,4,5,6,6a-hexahydro-1H-cyclopenta[c]pyrrol-5-yl]amino]-2,3-difluoro-phenyl]phenyl]acetamide], the “Human M4 Emin” value (Table 10) is 4%. Besides, under setting [2], the half-inhibitory concentration (IC50) was found to be 0.997 µM.

For `Cc1nn(C)cc1-c1ccc(N[C@H]2C[C@@H]3CN(CCC(C)(C)C)C[C@@H]3C2)nn1` [Compound 3, (3aR,5s,6aS)-2-(3,3-dimethylbutyl)-N-[6-(1,3-dimethylpyrazol-4-yl)pyridazin-3-yl]-3,3a,4,5,6,6a-hexahydro-1H-cyclopenta[c]pyrrol-5-amine], the IC50 under setting [1] was determined as 0.0006 µM. The Emin (Table 9) is reported as 4.99%.

For `Cc1nn(C)cc1-c1ccc(N[C@@H]2C[C@@H]3CN(CC4CCCCCC4)C[C@@H]3C2)c(F)c1F` [Compound 44, (3aR,5r,6aS)-2-(cycloheptylmethyl)-N-[4-(1,3-dimethylpyrazol-4-yl)-2,3-difluoro-phenyl]-3,3a,4,5,6,6a-hexahydro-1H-cyclopenta[c]pyrrol-5-amine], the half-inhibitory concentration (IC50) under setting [1] was 2.15 µM. The Emin (Table 9) came out at 5.01%.

For `Cc1nn(C)cc1-c1ccc(OCC2C[C@@H]3CN(Cc4ccccc4F)C[C@@H]3C2)nn1` (stereo partly drawn) [Compound 101, (3aR,6aS)-5-[[6-(1,3-dimethylpyrazol-4-yl)pyridazin-3-yl]oxymethyl]-2-[(2-fluorophenyl)methyl]-3,3a,4,5,6,6a-hexahydro-1H-cyclopenta[c]pyrrole], the IC50 under setting [1] was 2.54 µM. Under “Table 9”, the Emin came out at 6.60%.

As to `Fc1ccc(Cl)c(-c2ccc(OCC3C[C@@H]4CN(CC5CC6C=CC5C6)C[C@@H]4C3)nn2)c1` (stereo partly drawn) [Compound 108, (3aR,6aS)-2-(5-bicyclo[2.2.1]hept-2-enylmethyl)-5-[[6-(2-chloro-5-fluoro-phenyl)pyridazin-3-yl]oxymethyl]-3,3a,4,5,6,6a-hexahydro-1H-cyclopenta[c]pyrrole], the IC50 under setting [1] is 0.134 µM. In addition, the Emin (Table 9) is recorded as 3.90%.

For `Fc1ccc(Cl)c(-c2ccc(O[C@@H]3C[C@@H]4CN(CC5CCOCC5)C[C@@H]4C3)nn2)c1` [Compound 59, (3aR,5r,6aS)-5-[6-(2-chloro-5-fluoro-phenyl)pyridazin-3-yl]oxy-2-(tetrahydropyran-4-ylmethyl)-3,3a,4,5,6,6a-hexahydro-1H-cyclopenta[c]pyrrole], where the note is “Table 9”, the Emin came out at 20.7%. Further, the IC50 (Table 9, μM) was greater than 10 µM.

`c1ccc(-c2cnc(N[C@H]3C[C@@H]4CN(Cc5ccncc5)C[C@@H]4C3)s2)cc1` [Compound 231, N-[(3aR,5s,6aS)-2-(4-pyridylmethyl)-3,3a,4,5,6,6a-hexahydro-1H-cyclopenta[c]pyrrol-5-yl]-5-phenyl-thiazol-2-amine]: the “Human M4 Emin” value (Table 10) amounted to 68%. For the setting “Table 10, μM”, the half-inhibitory concentration (IC50) is greater than 10 µM.

`CN(C)C(=O)c1ccc(-c2ccc(N[C@H]3C[C@@H]4CN(CC5CCOCC5)C[C@@H]4C3)nn2)cc1` [Compound 207, 4-[6-[[(3aR,5s,6aS)-2-(tetrahydropyran-4-ylmethyl)-3,3a,4,5,6,6a-hexahydro-1H-cyclopenta[c]pyrrol-5-yl]amino]pyridazin-3-yl]-N,N-dimethyl-benzamide]: for the setting “Table 10”, the “Human M4 Emin” value worked out at 16%. Further, the IC50 under setting [2] came out at 0.0448 µM.

Consider `Cc1cnn(C)c1-c1ccc(OCC2C[C@@H]3CN(CC4CCCCC4)C[C@@H]3C2)nn1` (stereo partly drawn) [Compound 83, (3aR,6aS)-2-(cyclohexylmethyl)-5-[[6-(2,4-dimethylpyrazol-3-yl)pyridazin-3-yl]oxymethyl]-3,3a,4,5,6,6a-hexahydro-1H-cyclopenta[c]pyrrole], for which, under setting [1], the IC50 was 0.222 µM. Where the note is “Table 9”, the Emin amounted to 3.93%.

Regarding `Cc1cccnc1CN1C[C@H]2C[C@H](CNc3ccc(-c4cn(C)nc4C)nn3)C[C@H]2C1` [Compound 73, N-[[(3aR,5s,6aS)-2-[(3-methyl-2-pyridyl)methyl]-3,3a,4,5,6,6a-hexahydro-1H-cyclopenta[c]pyrrol-5-yl]methyl]-6-(1,3-dimethylpyrazol-4-yl)pyridazin-3-amine], under setting [1], the half-maximal inhibitory concentration (IC50) amounted to 2.01 µM. In addition, the Emin (Table 9) is 9.23%.

As for `Cc1ccc(F)cc1-c1ccc(N[C@H]2C[C@@H]3CN(CC4CCOCC4)C[C@@H]3C2)nn1` [Compound 214, (3aR,5s,6aS)-N-[6-(5-fluoro-2-methyl-phenyl)pyridazin-3-yl]-2-(tetrahydropyran-4-ylmethyl)-3,3a,4,5,6,6a-hexahydro-1H-cyclopenta[c]pyrrol-5-amine], the “Human M4 Emin” value (Table 10) is reported as 4%. In addition, the 50% inhibitory concentration (IC50) under setting [2] was found to be 0.000293 µM.

In the case of `COc1ccc(-c2ccc(N[C@H]3C[C@@H]4CN(CC5CCOCC5)C[C@@H]4C3)nn2)cn1` [Compound 224, (3aR,5s,6aS)-N-[6-(6-methoxy-3-pyridyl)pyridazin-3-yl]-2-(tetrahydropyran-4-ylmethyl)-3,3a,4,5,6,6a-hexahydro-1H-cyclopenta[c]pyrrol-5-amine], the “Human M4 Emin” value (Table 10) is 4%. The IC50 under setting [2] worked out at 0.00693 µM.

For `Cc1cnn(C)c1-c1ccc(N[C@H]2C[C@@H]3CN(CCC(C)(C)C)C[C@@H]3C2)nn1` [Compound 1, (3aR,5s,6aS)-2-(3,3-Dimethylbutyl)-N-[6-(2,4-dimethylpyrazol-3-yl)pyridazin-3-yl]-3,3a,4,5,6,6a-hexahydro-1H-cyclopenta[c]pyrrol-5-amine], the IC50 under setting [1] was 0.008 µM. The Emin (Table 9) was determined as 13.1%.

By IC50 is commonly meant the midpoint of a concentration-inhibition curve.

The record behind these values is patent publication US12577234B2, “Antagonists of the muscarinic acetylcholine receptor M4” (Vanderbilt University, priority 2017, dated 2026).
